Test [1] has as its system HCT116 colorectal cancer cells. The experiment in a line: Cisplatin sensitization assay (96 h cell viability MTS).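 Also: compound concentration needed to lower the Cisplatin-alone IC50 by a set fold.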 The format is cell-based. The conditions noted are these: 96 h MTS, compound plus Cisplatin. Put shortly: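 HCT116 cells were co-treated with compound and cisplatin, each in 2-fold serial dilutions from a 10 μM top final concentration, as a full matrix. After 96 h at 37 °C, 5% CO2, viability was read by MTS following a 1 h incubation with reagent.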

The next test concerns the target full-length ATR (Homo sapiens (Human), UniProt Q13535). Description: ATR inhibition assay (radioactive-phosphate incorporation). The format is biochemical. The conditions noted are these: 5 nM full-length ATR, Ki(app). As for the experimental part: Compounds were screened for their ability to inhibit ATR kinase using a radioactive-phosphate incorporation assay. Assays were carried out in a mixture of 50 mM Tris/HCl (pH 7.5), 10 mM MgCl2 and 1 mM DTT. Final substrate concentrations were 10 μM [y-33P]ATP (3 mCi 33P ATP/mmol ATP, Perkin Elmer) and 800 μM target peptide ([…]) (SEQ ID NO:1).
Assays were carried out at 25° C. in the presence of 5 nM full-length ATR. An assay stock buffer solution was prepared containing all of the reagents listed above, with the exception of ATP and the test compound of interest. 13.5 μL of the stock solution was placed in a 96 well plate followed by addition of 2 μL of DMSO stock containing serial dilutions of the test compound (typically starting from a final concentration of 15 μM with 3-fold serial dilutions) in duplicate (final DMSO concentration 7%). The plate was pre-incubated for 10 minutes at 25° C. and the reaction initiated by addition of 15 μL [γ-33P]ATP (final concentration 10 μM).
The reaction was stopped after […] by the addition of 30 μL 0.1M phosphoric acid containing 2 mM ATP. […]
After removing mean background values for all of the data points, Ki(app) data were calculated from non-linear regression analysis of the initial rate data using the Prism software package (GraphPad Prism version 3.0 cx for Macintosh, GraphPad Software, San Diego Calif., USA).

We go through five compounds from patent US10787452B2 (Vertex Pharmaceuticals Incorporated, priority 2012, dated 2020).

Chain of full-length ATR (Q13535 whole entry): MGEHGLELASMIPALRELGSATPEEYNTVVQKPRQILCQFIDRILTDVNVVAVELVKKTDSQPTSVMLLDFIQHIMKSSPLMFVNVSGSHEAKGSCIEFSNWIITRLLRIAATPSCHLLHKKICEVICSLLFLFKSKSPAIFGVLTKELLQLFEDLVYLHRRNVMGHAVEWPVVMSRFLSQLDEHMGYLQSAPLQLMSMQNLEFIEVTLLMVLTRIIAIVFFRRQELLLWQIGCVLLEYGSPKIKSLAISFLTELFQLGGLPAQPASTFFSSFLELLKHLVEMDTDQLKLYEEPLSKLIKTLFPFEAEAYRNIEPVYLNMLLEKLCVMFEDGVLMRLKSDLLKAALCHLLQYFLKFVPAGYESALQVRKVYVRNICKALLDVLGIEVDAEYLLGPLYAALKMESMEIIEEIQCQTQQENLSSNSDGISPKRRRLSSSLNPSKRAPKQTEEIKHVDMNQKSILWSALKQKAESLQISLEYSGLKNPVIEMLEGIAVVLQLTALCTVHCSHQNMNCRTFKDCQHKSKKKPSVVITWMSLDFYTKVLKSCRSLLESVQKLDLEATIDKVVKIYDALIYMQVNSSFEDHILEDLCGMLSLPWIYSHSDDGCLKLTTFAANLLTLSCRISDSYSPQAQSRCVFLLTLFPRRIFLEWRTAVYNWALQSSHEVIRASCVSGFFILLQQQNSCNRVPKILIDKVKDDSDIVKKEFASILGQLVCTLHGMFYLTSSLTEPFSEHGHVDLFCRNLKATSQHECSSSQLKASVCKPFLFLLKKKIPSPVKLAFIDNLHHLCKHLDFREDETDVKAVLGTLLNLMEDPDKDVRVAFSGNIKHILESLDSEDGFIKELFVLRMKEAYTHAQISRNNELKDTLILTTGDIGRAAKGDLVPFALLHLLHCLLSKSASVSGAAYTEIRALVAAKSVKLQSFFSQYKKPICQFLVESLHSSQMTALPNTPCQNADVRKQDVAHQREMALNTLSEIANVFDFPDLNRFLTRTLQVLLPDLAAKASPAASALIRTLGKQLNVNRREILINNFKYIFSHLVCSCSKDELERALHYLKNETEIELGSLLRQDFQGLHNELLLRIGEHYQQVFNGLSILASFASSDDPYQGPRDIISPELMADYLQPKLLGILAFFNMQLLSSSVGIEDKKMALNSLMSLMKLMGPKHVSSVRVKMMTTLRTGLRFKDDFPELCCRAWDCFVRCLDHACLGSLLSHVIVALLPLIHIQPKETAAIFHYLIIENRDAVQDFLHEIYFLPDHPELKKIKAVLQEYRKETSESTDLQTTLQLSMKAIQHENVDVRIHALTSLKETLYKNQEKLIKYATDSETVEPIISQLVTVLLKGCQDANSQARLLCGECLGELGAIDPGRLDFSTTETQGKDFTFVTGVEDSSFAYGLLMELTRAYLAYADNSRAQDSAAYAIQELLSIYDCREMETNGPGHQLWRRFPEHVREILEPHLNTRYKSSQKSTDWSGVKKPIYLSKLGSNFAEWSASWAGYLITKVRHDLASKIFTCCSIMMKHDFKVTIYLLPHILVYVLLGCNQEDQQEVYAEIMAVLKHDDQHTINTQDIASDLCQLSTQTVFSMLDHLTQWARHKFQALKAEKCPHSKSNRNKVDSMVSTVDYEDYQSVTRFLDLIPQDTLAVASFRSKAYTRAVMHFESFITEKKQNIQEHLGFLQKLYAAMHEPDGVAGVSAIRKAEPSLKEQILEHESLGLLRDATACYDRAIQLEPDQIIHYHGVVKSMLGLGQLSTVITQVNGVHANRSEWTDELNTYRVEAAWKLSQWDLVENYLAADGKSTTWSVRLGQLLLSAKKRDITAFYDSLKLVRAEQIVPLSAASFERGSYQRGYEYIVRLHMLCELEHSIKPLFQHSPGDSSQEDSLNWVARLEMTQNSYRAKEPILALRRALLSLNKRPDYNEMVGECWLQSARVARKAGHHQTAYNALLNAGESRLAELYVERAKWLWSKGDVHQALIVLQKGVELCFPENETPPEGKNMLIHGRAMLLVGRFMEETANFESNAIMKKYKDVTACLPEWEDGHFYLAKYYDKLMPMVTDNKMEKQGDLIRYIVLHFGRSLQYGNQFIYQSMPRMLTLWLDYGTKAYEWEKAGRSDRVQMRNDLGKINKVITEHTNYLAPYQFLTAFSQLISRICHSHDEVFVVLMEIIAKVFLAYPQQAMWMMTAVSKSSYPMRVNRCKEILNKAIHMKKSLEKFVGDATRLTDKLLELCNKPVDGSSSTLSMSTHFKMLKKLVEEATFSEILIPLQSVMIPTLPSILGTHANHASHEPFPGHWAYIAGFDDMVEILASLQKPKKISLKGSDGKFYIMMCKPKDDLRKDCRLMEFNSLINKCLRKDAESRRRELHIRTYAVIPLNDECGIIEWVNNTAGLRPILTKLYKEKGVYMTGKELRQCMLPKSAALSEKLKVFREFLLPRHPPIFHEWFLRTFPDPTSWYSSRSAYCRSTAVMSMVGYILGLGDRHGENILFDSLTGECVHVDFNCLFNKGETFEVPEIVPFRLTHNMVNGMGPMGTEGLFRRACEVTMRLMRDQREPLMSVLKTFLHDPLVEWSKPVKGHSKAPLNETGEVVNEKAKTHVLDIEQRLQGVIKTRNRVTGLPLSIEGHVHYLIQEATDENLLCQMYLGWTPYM

Consider `Nc1nn2cc(F)cnc2c1C(=O)Nc1cnccc1-c1ccc(C(=O)N2CCN3CCC2CC3)cc1F` [I-C-50, N-(4-(4-(1,4-diazabicyclo[3.2.2]nonane-4-carbonyl)-2-fluorophenyl)pyridin-3-yl)-2-amino-6-fluoropyrazolo[1,5-a]pyrimidine-3-carboxamide], for which the “Cisplatin Sensitization Assay” value in test [1] is on record as “+++ (Compounds with a Cisplatin sensitization value of <0.02 μM are marked with “+++.”)”. Besides, the Ki on full-length ATR is 10 to 1000 nM.

As to `Nc1nn2cc(F)cnc2c1C(=O)Nc1cncc(F)c1N1CCC(C(=O)O)CC1` [I-N-92, 1-(3-(2-amino-6-fluoropyrazolo[1,5-a]pyrimidine-3-carboxamido)-5-fluoropyridin-4-yl)piperidine-4-carboxylic Acid], the “Cisplatin Sensitization Assay” value in test [1] was “+ (Compounds with a Cisplatin sensitization value >0.2 μM but <5 μM are marked with “+.”)”. For the same compound, the Ki at full-length ATR was in the range of 1000 to 5000 nM.

Turning to `CNc1cc(OC)c(NC(=O)c2c(N)nn3cc(F)cnc23)cn1` [I-O-90, 2-amino-6-fluoro-N-(4-methoxy-6-(methylamino)pyridin-3-yl)pyrazolo[1,5-a]pyrimidine-3-carboxamide], the “Cisplatin Sensitization Assay” value in test [1] was “+ (Compounds with a Cisplatin sensitization value >0.2 μM but <5 μM are marked with “+.”)”.

Regarding `Nc1nn2cc(F)cnc2c1C(=O)Nc1cncc(F)c1OC1CCN(C2COC2)CC1` [I-O-91, 2-amino-6-fluoro-N-(5-fluoro-4-((1-(oxetan-3-yl)piperidin-4-yl)oxy)pyridin-3-yl)pyrazolo[1,5-a]pyrimidine-3-carboxamide], the “Cisplatin Sensitization Assay” value in test [1] was “++ (Compounds with a Cisplatin sensitization value >0.02 μM but <0.2 μM are marked with “++.”)”.

With `Nc1nn2cc(F)cnc2c1C(=O)Nc1cnccc1OC1COC1` [I-O-92, 2-amino-6-fluoro-N-(4-(oxetan-3-yloxy)pyridin-3-yl)pyrazolo[1,5-a]pyrimidine-3-carboxamide], in test [1], the “Cisplatin Sensitization Assay” value is “+++ (Compounds with a Cisplatin sensitization value of <0.02 μM are marked with “+++.”)”.
